Source: publication PMC7067379, “Mapping the S1 and S1’ subsites of cysteine proteases with new dipeptidyl nitrile inhibitors as trypanocidal agents” (PLoS Neglected Tropical Diseases, 2020)
Where two headings read alike, the source gives them in different places.

Experiments:
[1] = biological target: T1, Human recombinant cathepsin K (Homo sapiens, UniProt P43235); assay: Cathepsin K assay; assay type: biochemical; settings: for Ki: SD lower than 15%, read-out: pKi CatK (converted); for remaining activity at 10 µM: read-out: remaining activity (%) at 10 μM, CatK
T1 sequence (P43235 115-329): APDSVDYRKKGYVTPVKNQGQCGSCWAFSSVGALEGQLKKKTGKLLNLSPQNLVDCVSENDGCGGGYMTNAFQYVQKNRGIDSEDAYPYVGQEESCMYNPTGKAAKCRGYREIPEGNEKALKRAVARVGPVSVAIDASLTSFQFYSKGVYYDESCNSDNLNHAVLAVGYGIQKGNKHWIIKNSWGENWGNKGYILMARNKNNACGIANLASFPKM
Description: Human recombinant cathepsin K was assayed on a FLUOSTAR Optima plate reader at 25 °C with an excitation wavelength of 360 nm and an emission wavelength of 440 nm on a 96 well plate. The enzyme solution (23 μg/mL in 50 mM sodium acetate pH 5.5, 50 mM NaCl, 0.5 mM EDTA, 5 mM DTT) was diluted 1:100 with assay buffer (100 mM sodium citrate buffer pH 5.0, 100 mM NaCl, 1 mM EDTA, 0.01% CHAPS) containing 5 mM DTT and was then incubated at 37 °C for 30 min for activation. A 1.5 mM stock solution of the substrate Z-Leu-Arg-AMC was prepared in DMSO. […] The assay was performed with a final concentration of cathepsin K of 1.73 ng/mL. Stock solutions of inhibitors were prepared in DMSO. The final DMSO concentration was 2% (4 μL). Into a well containing 194.5 μL assay buffer, 0.8 μL of the fluorogenic substrate, DMSO and inhibitor solution (3.2 μL) were added. Upon addition of cathepsin K (1.5 μL), the measurement was started and followed for 20 min.

[2] = biological target: recombinant cruzain (Cz) (Trypanosoma cruzi, UniProt P25779); assay: Cruzain enzyme inhibition; assay type: biochemical; settings: for remaining activity at 10 µM: replicates = 2; for Ki: SD lower than 15%, read-out: pKi Cz (converted)
Description: (§1) Enzyme inhibition studies for Cz and LmCPB were performed as previously described for Cz. The experimental procedures are described in the Supporting Information (see chapter S3). Cathepsins B, L, S were assayed as reported.

[3] = tested on: T. cruzi Tulahuen LacZ strain, intracellular amastigote forms; assay: In vitro trypanocidal activity on intracellular amastigote forms (Tulahuen strain); assay type: cell-based, Trypanosoma cruzi; settings: for EC50: Trypanosoma cruzi, TULAHUEN; for SI (selective index): from EC50 (T. cruzi) and CC50 (LLCMK2)
Description: Cells were evaluated in 96-well plates. Cells from the LLCMK2 lineage were plated at a concentration of 5x10^4 cells mL^-1. Trypomastigote forms of the Tulahuen LacZ strain were added at a concentration of 5×10^5 parasites mL^-1 and placed in the incubator at 37°C with 5% CO2 for 24 h. After the incubation period, the trypomastigote forms present were removed by successive washes with PBS, remaining only as intracellular amastigote forms. Compounds were added at different concentrations (1.95 μM to 250 μM serial dilutions) and incubated for 72 h. At the end of this period, the substrate CPRG (chlorophenol red β-D-galactopyranoside, 400 μM in 0.3% Triton X-100, pH 7.4) was added. […] Benznidazole was used as a positive control in the same concentrations as the substances, and DMSO as a negative control. Compounds were solubilized in DMSO. The selectivity index (SI) was calculated using the formula: […]. All statistical analyses were done with the program GraphPad Prism v.5.

[4] = biological target: Leishmania mexicana CPB (LmCPB) (Leishmania mexicana, UniProt P36400); assay: LmCPB enzyme inhibition; assay type: biochemical; settings: for remaining activity at 10 µM: replicates = 2; for Ki: SD lower than 15%, read-out: pKi LmCPB (converted)
Description: as §1

[5] = Mammalian cytotoxicity assay (MTT); assay type: cell-based; settings: rhesus monkey, LLCMK2 cells;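 also: Read-out is absorbance at 570 nm of formazan taken up in DMSO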
[6] = biological target: cathepsin L (CatL) (Homo sapiens, UniProt P07711); assay: Cathepsin L enzyme inhibition; assay type: biochemical; settings: for Ki: SD lower than 15%, read-out: pKi CatL (converted); for difference in pKi, CatL: relative to compound 11, sign not given, direction by cell colour or wording
[7] = biological target: cathepsin S (CatS) (Homo sapiens, UniProt P25774); assay: Cathepsin S enzyme inhibition; assay type: biochemical; settings: for Ki: SD lower than 15%, read-out: pKi CatS (converted)
Description: as §1

[8] = biological target: cathepsin B (CatB) (Homo sapiens, UniProt P07858); assay: Cathepsin B enzyme inhibition; assay type: biochemical; settings: for Ki: SD lower than 15%, read-out: pKi CatB (converted)
[9] = S1 Table, maximum concentration used 250 µM, read-out: EC50 T. cruzi
[10] = T. cruzi amastigote form, S1 Table, read-out: pEC50 (converted)
[11] = S1 Table, maximum concentration used 250 µM, read-out: CC50
[12] = LLCMK2, 72 h, MTT, Table 2, read-out: CC50 cytotoxicity
[13] = 10 μM, replicates = 2, n.i. = no inhibition observed at 10 μM
[14] = 72 h, amastigote, Tulahuen strain, 72 h, Table 2, read-out: EC50 trypanocidal activity

cathepsin S (CatS), sequence (P25774 115-331): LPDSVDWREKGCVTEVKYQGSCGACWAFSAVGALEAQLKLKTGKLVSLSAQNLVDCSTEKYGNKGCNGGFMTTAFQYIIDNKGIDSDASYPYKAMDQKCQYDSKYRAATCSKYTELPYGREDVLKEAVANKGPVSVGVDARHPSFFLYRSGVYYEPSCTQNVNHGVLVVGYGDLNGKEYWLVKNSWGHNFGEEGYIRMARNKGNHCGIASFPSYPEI
Leishmania mexicana CPB (LmCPB), sequence (P36400 126-443): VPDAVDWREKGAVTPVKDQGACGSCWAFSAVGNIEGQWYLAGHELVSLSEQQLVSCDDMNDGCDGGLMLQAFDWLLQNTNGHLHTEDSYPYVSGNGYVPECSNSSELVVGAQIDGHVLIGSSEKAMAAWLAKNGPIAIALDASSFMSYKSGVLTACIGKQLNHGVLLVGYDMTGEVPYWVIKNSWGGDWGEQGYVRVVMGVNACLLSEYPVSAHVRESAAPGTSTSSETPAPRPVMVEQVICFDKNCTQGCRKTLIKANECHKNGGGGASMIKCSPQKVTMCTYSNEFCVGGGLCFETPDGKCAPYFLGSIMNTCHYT
recombinant cruzain (Cz), sequence (P25779 123-337): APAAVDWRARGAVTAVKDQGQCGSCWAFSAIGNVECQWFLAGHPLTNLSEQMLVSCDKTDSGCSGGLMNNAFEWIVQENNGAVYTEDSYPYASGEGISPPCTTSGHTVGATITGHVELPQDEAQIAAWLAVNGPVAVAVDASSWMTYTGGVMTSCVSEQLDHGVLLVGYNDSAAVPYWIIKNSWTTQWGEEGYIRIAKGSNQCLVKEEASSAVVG
cathepsin L (CatL), sequence (P07711 114-333): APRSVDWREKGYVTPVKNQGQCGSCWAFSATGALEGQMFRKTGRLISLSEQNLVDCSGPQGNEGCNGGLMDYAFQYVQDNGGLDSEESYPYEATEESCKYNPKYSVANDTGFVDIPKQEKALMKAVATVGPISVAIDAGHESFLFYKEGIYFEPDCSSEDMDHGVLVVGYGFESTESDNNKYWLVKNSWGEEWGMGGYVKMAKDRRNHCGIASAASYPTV

Compound | Ki [1] [µM] | remaining activity at 10 µM [2] [%] | EC50 [3, 9] [µM] | EC50 [3, 10] [µM] | remaining activity at 10 µM [4] [%] | melting point [°C] | CC50 at 72 h [5, 11] [µM] | Ki [6] [µM] | Ki [7] [µM] | Ki [8] [µM] | Ki [2] [µM] | Ki [4] [µM] | SI (selective index) ([3]; Table 2) | CC50 at 72 h [5, 12] [µM] | remaining activity at 10 µM [8, 13] [%] | EC50 [3, 14] [µM] | other results
C[C@@H](O)[C@H](NC(=O)c1cc(C(C)(C)C)nn1C)C(=O)NC1(C#N)CC1 [Compound 19, 3-(tert-Butyl)-N-((2S,3R)-1-((1-cyanocyclopropyl)amino)-3-hydroxy-1-oxobutan-2-yl)-1-methyl-1H-pyrazole-5-carboxamide] | 3.16 | 51 | > 100 | > 100 | 67 | 201 to 202 | > 100 | 6.31 | 10 | 25.1 |  |  |  |  |  |  | difference in pKi, CatL [6]: 0.5
C[C@@H](OCc1ccccc1)[C@@H](C#N)NC(=O)[C@H](Cc1ccccc1)NC(=O)c1cc(C(C)(C)C)nn1C [Compound 56, N-((S)-1-(((1R,2R)-2-(Benzyloxy)-1-cyanopropyl)amino)-1-oxo-3-phenylpropan-2-yl)-3-(tert-butyl)-1-methyl-1H-pyrazole-5-carboxamide] | 2 |  | > 100 | > 100 |  | 115 to 116 | > 100 | 0.1 | 1 | 6.31 | 0.501 | 0.316 |  |  |  |  | difference in pKi, Cz ([2]; relative to compound 9, sign not given, direction by cell colour or wording): -1.0; EC50 ([3]; amastigote forms of T. cruzi (Tuhaluen strain), Figs 12-14, unit inferred): > 100 µM
CC(C)C[C@H](NC(=O)c1ccnc2cc(Cl)ccc12)C(=O)NC1(C#N)CC1 [Compound 15, (S)-7-Chloro-N-(1-((1-cyanocyclopropyl)amino)-4-methyl-1-oxopentan-2-yl)quinoline-4-carboxamide] | 0.126 |  | 77.3 | 79.4 |  | 169 to 170 | > 100 | 0.251 | 0.126 |  | 0.0158 | 0.0501 | 1.14 | 73.6 ± 8.74 | 89 |  | EC50 ([3]; 72 h, read-out: EC50 trypanocidal activity, amastigote, Tulahuen strain, 72 h, Table 2): 64.7 ± 4.32 µM; difference in pKi, CatL [6]: 1.0
C[C@H](O)[C@H](C#N)NC(=O)[C@H](Cc1ccccc1)NC(=O)c1cc(C(C)(C)C)nn1C [Compound 66, 3-(tert-Butyl)-N-((S)-1-(((1S,2S)-1-cyano-2-hydroxypropyl)amino)-1-oxo-3-phenylpropan-2-yl)-1-methyl-1H-pyrazole-5-carboxamide] |  |  |  | 31.6 |  | 145 to 147 |  | 2.51 | 20 |  | 3.98 | 15.8 | > 3.3 | > 100 | 89 | 30 ± 2.71 | remaining activity at 10 µM [1, 13]: 81%
CC(C)C[C@H](NC(=O)c1cc(C(C)(C)C)nn1C)C(=O)N[C@@H](C#N)[C@H](C)OCc1ccccc1 [Compound 59, N-((S)-1-(((1S,2S)-2-(Benzyloxy)-1-cyanopropyl)amino)-4-methyl-1-oxopentan-2-yl)-3-(tert-butyl)-1-methyl-1H-pyrazole-5-carboxamide] |  | 60 | > 100 | > 100 | 75 | 110 to 111 | > 100 |  |  |  |  |  |  |  |  |  | remaining activity (%) at 10 μM, CatK [1, 13]: n.i.^c; EC50 ([3]; amastigote forms of T. cruzi (Tuhaluen strain), Figs 12-14, unit inferred, read-out: EC50): > 100 µM; remaining activity at 10 µM [6, 13]: 90%; remaining activity at 10 µM [7, 13]: 85%; remaining activity (%) at 10 μM, CatB [8, 13]: n.i.^c
C[C@@H](O)[C@@H](C#N)NC(=O)[C@H](Cc1ccccc1)NC(=O)c1cc(C(C)(C)C)nn1C [Compound 65, 3-(tert-Butyl)-N-((S)-1-(((1R,2R)-1-cyano-2-hydroxypropyl)amino)-1-oxo-3-phenylpropan-2-yl)-1-methyl-1H-pyrazole-5-carboxamide] |  | 68 |  | 79.4 | 69 | 159 to 160 |  | 5.01 | 5.01 |  |  |  | > 1.4 | > 100 | 92 | 70.8 ± 8.79 | remaining activity at 10 µM [1, 13]: 86%
CC(C)CC(C#N)NC(=O)[C@H](Cc1ccccc1)NC(=O)c1cc(C(C)(C)C)nn1C (stereo in doubt) [Compound 53, 3-(tert-Butyl)-N-((S)-1-(((S)-1-cyano-3-methylbutyl)amino)-1-oxo-3-phenylpropan-2-yl)-1-methyl-1H-pyrazole-5-carboxamide] | 1 |  |  | 25.1 |  | 91 to 94 | 132 | 0.1 | 1 |  | 0.316 | 0.398 | > 3.8 | > 100 | 90 | 26 ± 2.6 | 
N#CC1(NC(=O)[C@H](Cc2ccccc2)NC(=O)c2cccc(OC(=O)c3ccccc3)c2)CC1 [Compound 16, (S)-3-((1-((1-Cyanocyclopropyl)amino)-1-oxo-3-phenylpropan-2-yl)carbamoyl)phenyl benzoate] | 0.631 |  |  | 50.1 |  | 185 to 187 |  | 0.501 | 0.0501 | 6.31 | 0.126 | 0.1 | > 2.1 | > 100 |  | 47.3 ± 3.26 | 
